A short description of data set [1]: Ongoing Phase 2 efficacy and safety study in subjects with diabetic neuropathic pain. To be noted: 100 mg BID up to 6 weeks. In kind it is in vivo, human. On the procedure: (§1) In this study subjects with diabetic neuropathic pain were administered 100 mg BID up to 6 weeks and dosing has been completed. Nevertheless, if there is any new safety signal observed during this study, dosing of Compound A can be discontinued based on the joint decision of the investigators and study sponsor's medical monitor.
(§2) Single doses of Compound A up to 170 mg were well-tolerated in healthy subjects. The Compound A dose of 100 mg twice daily (BID) is the clinical dose used in the ongoing Phase 2a study in subjects with diabetic neuropathic pain. The dose of 100 mg is selected in the current study to explore the effect of Compound A in a microneurography model in order to bridge the efficacy outcome of Compound A in the Phase 2a study.

Data set [2] can be described thus: Phase 1 first-in-human safety, tolerability and pharmacokinetic studies of Compound A in healthy subjects. The data set is classed as in vivo. The procedure:
as §1, §2
The safety, tolerability, and pharmacokinetics of Compound A in humans have been evaluated in 94 healthy adult subjects in the Phase 1 first-in-human (FIH) study with the single dose up to 170 mg and multiple doses up to 160 mg for 7 to 14 days. […] Given that Compound A is an investigational drug and this study will be conducted in diabetic patient population that generally has high risk factors, inclusion and exclusion have been carefully established to avoid exposing patients to undue risk. In addition, adequate safety monitoring procedures and stopping criteria are placed in the protocol.

The target in data set [3] is T-type (Cav3.2) calcium channel (Homo sapiens, UniProt O95180). Kind of data set: T-type calcium channel block (statement of selectivity).
For data set [4] the following is noted: cited from earlier work.
The mark [5] stands for this setting: 94 healthy adult subjects, single dose up to 170 mg, multiple doses up to 160 mg for 7 to 14 days.

Chain of T-type (Cav3.2) calcium channel (O95180 whole entry): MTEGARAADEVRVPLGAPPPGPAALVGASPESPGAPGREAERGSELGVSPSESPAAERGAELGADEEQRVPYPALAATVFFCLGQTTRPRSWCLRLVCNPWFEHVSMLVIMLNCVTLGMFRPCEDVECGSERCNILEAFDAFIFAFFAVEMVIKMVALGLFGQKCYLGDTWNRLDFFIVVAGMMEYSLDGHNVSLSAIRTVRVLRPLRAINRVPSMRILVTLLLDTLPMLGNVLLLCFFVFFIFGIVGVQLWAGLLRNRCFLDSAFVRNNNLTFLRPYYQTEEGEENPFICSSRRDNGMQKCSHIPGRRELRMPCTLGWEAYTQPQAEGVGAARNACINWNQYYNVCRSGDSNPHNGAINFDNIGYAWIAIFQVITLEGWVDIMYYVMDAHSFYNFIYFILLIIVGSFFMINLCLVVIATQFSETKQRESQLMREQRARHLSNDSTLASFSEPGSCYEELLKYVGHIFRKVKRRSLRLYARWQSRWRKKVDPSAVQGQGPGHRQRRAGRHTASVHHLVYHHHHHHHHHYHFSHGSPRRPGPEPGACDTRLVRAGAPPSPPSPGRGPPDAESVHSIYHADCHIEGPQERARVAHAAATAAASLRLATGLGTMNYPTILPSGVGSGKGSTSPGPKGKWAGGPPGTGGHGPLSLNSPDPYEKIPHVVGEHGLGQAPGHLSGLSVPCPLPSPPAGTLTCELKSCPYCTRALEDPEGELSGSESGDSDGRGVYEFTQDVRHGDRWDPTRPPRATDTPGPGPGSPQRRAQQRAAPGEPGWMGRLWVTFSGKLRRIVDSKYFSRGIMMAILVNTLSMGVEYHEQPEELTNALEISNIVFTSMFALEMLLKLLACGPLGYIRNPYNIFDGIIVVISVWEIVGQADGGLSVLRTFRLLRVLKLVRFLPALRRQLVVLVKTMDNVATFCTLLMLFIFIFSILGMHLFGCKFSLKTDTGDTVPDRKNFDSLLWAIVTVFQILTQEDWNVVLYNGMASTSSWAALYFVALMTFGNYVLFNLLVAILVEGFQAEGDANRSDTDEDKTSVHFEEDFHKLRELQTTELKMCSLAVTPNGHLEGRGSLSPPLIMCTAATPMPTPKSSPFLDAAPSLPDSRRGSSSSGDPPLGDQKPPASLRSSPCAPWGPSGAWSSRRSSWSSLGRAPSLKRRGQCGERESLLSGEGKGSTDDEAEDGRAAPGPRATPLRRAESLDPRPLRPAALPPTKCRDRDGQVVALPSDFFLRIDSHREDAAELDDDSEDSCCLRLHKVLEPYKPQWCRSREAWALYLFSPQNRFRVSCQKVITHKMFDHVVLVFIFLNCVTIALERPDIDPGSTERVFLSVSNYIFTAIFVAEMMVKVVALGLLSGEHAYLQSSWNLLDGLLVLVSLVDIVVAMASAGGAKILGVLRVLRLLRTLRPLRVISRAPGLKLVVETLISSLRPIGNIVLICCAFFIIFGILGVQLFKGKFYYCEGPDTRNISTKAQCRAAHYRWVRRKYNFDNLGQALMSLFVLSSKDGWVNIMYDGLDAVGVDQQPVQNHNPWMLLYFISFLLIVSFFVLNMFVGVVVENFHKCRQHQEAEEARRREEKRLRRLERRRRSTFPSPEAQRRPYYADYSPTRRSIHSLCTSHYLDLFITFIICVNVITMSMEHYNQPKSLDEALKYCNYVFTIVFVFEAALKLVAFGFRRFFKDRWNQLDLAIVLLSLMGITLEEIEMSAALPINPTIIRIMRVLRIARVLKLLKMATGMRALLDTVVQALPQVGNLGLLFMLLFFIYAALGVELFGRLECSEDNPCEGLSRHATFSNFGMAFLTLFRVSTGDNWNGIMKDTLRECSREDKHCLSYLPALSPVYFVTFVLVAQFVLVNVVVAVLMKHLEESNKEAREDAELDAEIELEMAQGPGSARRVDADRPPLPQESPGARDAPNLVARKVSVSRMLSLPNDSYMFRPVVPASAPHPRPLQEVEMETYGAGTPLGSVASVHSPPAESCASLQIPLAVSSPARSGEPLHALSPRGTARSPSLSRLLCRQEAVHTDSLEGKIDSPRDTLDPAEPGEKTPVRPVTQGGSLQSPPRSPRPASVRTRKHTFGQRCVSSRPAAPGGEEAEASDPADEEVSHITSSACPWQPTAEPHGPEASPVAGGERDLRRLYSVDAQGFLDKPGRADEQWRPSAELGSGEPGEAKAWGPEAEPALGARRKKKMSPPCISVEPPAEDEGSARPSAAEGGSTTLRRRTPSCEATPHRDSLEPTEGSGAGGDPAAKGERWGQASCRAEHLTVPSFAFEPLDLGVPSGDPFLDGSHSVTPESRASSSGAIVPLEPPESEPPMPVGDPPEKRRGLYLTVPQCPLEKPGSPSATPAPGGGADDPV

On to `O=C(c1cc(S(=O)(=O)Nc2ccccc2F)c(F)cc1Cl)N1CCN2CCC[C@@H]2C1` [Compound A, 4-chloro-2-fluoro-N-(2-fluorophenyl)-5-[(8aR)-hexahydropyrrolo[1,2-a]pyrazin-2(1H)-ylcarbonyl]benzenesulfonamide], for which the safety findings result in data set [1] was “no clinically important safety findings”. Further, in data set [2] (94 healthy adult subjects, single dose up to 170 mg and multiple doses up to 160 mg for 7 to 14 days), the tolerability entry is “well tolerated”. In addition, in data set [2] (setting [5]), the “dose dependence of occurrence of adverse events” value is recorded as “does not appear to be dose-dependent”; the “findings in vital signs, ECG and laboratory tests” value was “no clinically relevant findings”; the “severity of adverse events” value is “mild except one event”. In data set [2] (Phase 1 studies in healthy adults and healthy elderly subjects), the safety findings entry is listed as “no clinically important safety findings”. In addition, in data set [2] (current clinical program), the “adverse drug reactions in the current clinical program” value is recorded as “no adverse drug reactions identified”. The “tolerability of single doses” value in data set [2] (single doses up to 170 mg, healthy subjects) is reported as “well-tolerated”. Besides, the “selectivity as calcium channel blocker” value in data set [3] is “highly selective”.
With `CCN(CC)CC(=O)Nc1c(C)cccc1C` [Lidocaine], in data set [4] (IV infusion 2 mg/kg or 5 mg/kg, patients with painful diabetic neuropathy), the effect on pain result is recorded as “reduction of pain”. For the same molecule, in data set [4] (IV infusion 5 mg/kg, patients with painful diabetic neuropathy), the “pain relief versus placebo” value was “consistent superiority to placebo”. The “duration of pain relief following infusion” value in data set [4] (patients with diabetic neuropathy) is given as “up to 21 days”. Further, the “effect of systemic administration in neuropathic pain conditions” value in data set [4] (systemic administration, several neuropathic pain conditions) is reported as “analgesic effects”.

(Values after US20130178477A1, “METHODS OF TREATING DIABETIC NEUROPATHY USING BENZENESULFONAMIDES” (AbbVie Inc., priority 2012, published 2013).)
